{"source": "paper PMC12400753", "about": "(Respiratory Research, 2025)", "key": {"human LPAR3": {"biological_target": "T1, human LPAR3 (Homo sapiens, UniProt Q9UBY5)", "T1 construct": "host or cells: HEK293T", "T1 sequence (Q9UBY5 1-353)": "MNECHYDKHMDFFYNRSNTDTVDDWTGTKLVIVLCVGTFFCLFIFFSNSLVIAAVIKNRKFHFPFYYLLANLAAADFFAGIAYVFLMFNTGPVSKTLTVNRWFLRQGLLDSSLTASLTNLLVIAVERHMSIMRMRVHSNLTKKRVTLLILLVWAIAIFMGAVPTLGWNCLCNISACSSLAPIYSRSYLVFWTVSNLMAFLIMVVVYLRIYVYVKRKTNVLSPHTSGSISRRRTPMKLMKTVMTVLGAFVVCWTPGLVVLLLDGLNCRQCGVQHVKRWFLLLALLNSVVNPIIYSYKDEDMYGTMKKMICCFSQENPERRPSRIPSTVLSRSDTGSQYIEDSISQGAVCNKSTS", "test": "LPA-induced calcium mobilization in transiently transfected HEK293T cells", "assay_type": "cell-based", "details": "3 h preincubation; LPA at EC80 10 µM", "protocol": "We had previously assessed selectivity against LPAR2 and 3 [11]. […] Human LPAR1-6 plasmids were each transiently transfected into HEK293T cells and the EC80 (effective concentration producing 80% maximal effect) for LPA activation empirically determined. Selectivity was then tested in a concentration response paradigm using a 3 h preincubation followed by LPA-induced calcium mobilization.\nPlasmids containing human LPAR1-6 were obtained from Origene (Rockville, MD) and maxiprepped at Eton Biosciences (San Diego, CA). Transfection mix was prepared by adding Fugene 6 transfection mix to serum free media and 0.1 µg plasmid. After a 20 m incubation, HEK293T cells (ATCC, Manassas VA) were lifted with Accutase and added to the Fugene mix at a final concentration of 0.5 × 10^4 cells/well. Cells were then plated on black clear bottom 96-well plates and incubated overnight in a 37 °C, 5% CO2 incubator. […] During the last hour of incubation, media was removed and replaced with Fluo-4 NW calcium assay dye prepared as per manufacturer’s recommendations in assay buffer. Agonist plates containing LPA were prepared for individual receptor subytpes using their respective EC80. Calcium mobilization was measured as per manufacturer’s directions on a Flexstation 3 (Molecular Devices, San Jose, CA)."}, "[1]": {"system": "sandwich-cultured human hepatocytes", "test": "Cholestatic drug-induced liver injury (c-DILI) assay", "assay_type": "cell-based", "details": "30 µM, 24 h, in the presence or absence of a toxic concentration of bile acids", "protocol": "This study was conducted at BioIVT (Durham, […]). Sandwich-cultured human hepatocytes (SCHH) were prepared on BioCoat 96-well Cell Culture Plate from Corning (Cat # 354407) using Transporter Certified™ cryopreserved hepatocytes from BioIVT (Cat # M00995-TCERT) and maintained in freshly prepared QualGro™ Hepatocyte Culture Medium. […] Following 24 h of exposure, the culture plates were harvested for adenosine triphosphate (ATP) and lactate dehydrogenase (LDH) analysis. Cellular ATP content was determined using the CellTiter-Glo® Assay Kit and LDH leakage into the culture media was determined using the CytoTox-ONE® Assay Kit, both obtained from Promega, per manufacturer’s instructions."}, "[2]": {"system": "primary human lung fibroblasts", "test": "LPA-induced COL1A1 expression (immunocytochemistry)", "assay_type": "cell-based", "details": "1 µM LPA 8 h; compound overnight; read-out: IC50 inhibition of COL1A1 expression", "protocol": "COL1A1 assay: Primary human lung fibroblasts were plated in a 96-well plate and allowed to adhere. […] The next day, cells were treated with 1 µM LPA and incubated for 8 h. After incubation in LPA, cells were immunostained for COL1A1. Cells were fixed in formalin for 10 min, washed 3 x with PBS, incubated in collagen 1A1 antibody (1:250 in blocking buffer, 0.1% Triton X-100 in PBS, 2 h), and washed 3 x with PBS. Secondary antibody solution (1:500) and Hoechst (1:2000) were added for 1 h, washed 3 x in PBS then imaged on a Nikon A1R confocal microscope at 10x magnification except human lung fibroblasts which were imaged at 4x. Collagen area was quantified with ImageJ and normalized to Hoechst per image."}, "[3]": {"system": "fresh human PCLS from donors with pulmonary fibrosis", "test": "Secreted biomarkers in fresh PCLS from pulmonary fibrosis donors", "assay_type": "cell-based", "details": "PIPE-791 0.03, 0.3, 3 µM; 48 h", "excerpt": "Translationally, biomarker-based strategies for assessing aberrant extracellular matrix deposition and remodeling in the context of disease pathogenesis and compound efficacy have become increasingly relevant. For the PCLS gene expression studies, slices were preserved through slow cryogenic freezing of tissue. While this affords experimental flexibility, some physiological relevance is lost over the course of cryostorage and recovery (e.g., immune cell loss). To circumvent this, fresh PCLS from two donors with pulmonary fibrosis were generated and immediately placed into culture. For this experiment, well-established, secreted fibrotic markers that encompass fibrogenesis and tissue remodeling were measured: C3M (a marker of collagen III degradation and an indicant of ECM remodeling and tissue turnover), Pro-C3 (a neo-epitope fragment of collagen III and a marker of active fibrogenesis and fibrosis progression), and Pro-C6 (a neoepitope fragment of COLVIA3 and a marker of remodeling and wound healing). […] Media was then removed and analyzed for biomarker concentration.\nPCLS cultures for secreted biomarker analysis were performed at Fraunhofer ITEM (Hanover, Germany) using tissue from pathologist qualified, pulmonary fibrosis patients. Tissue from individual donors and 2 lung regions were collected in accordance with policies approved by the Hanover Medical School ethics committee. Only fibrotic tissue was used for experiments. Region 1 consisted of subpleural tissue and Region 2 of central tissue. For each, lung lobes were filled with low-melting agarose then sectioned at 300 μm on a Krumdiek tissue slicer as described in Hesse et al., 2022. Slices were incubated in DMEM containing penicillin and streptomycin, two slices per region were used. […] Supernatant was collected and shipped to Nordic Bioscience (Herlev, Denmark) for C3M, Pro-C6 and Pro-C3 analysis. Donor information can be found in Additional File 1."}, "[4]": {"system": "bleomycin-induced macrophage activation", "test": "Intratracheal bleomycin, therapeutic dosing: BAL macrophage size and IL-1β", "assay_type": "in vivo, mouse", "details": "3 mg/kg oral once a day from day 3 after bleomycin", "protocol": "To further support our ex vivo macrophage findings, we used a therapeutic paradigm where mice were challenged in vivo with intratracheal instillation of bleomycin. […] The fluid was centrifuged and supernatant and cell fractions analyzed.\nMice were dosed until day 14 at which point BAL fluid was collected. BAL was centrifuged and cells were transferred to culture plates and incubated overnight at 37 °C. Plates were spun down and supernatant and cell pellet analysed separately. Supernatant was analyzed for IL-1β as described for mouse above. The cell pellet for each condition was plated at 3 × 10^3 cells/well in black clear bottom 96-well plates. After settling, cells were fixed in formalin and immunostained against CD68 and detected with a donkey anti-rat Alexa 488 conjugated antibody. Image acquisition and analysis was performed using a Nikon A1R confocal microscope and NIS Elements software."}}}
{"smiles": "COc1ccc(NC(=O)N(c2ccccc2C(C)C)C2CCC(C(=O)O)CC2)c(OC(F)F)n1", "note": "(stereo not drawn) [PIPE-791]", "values": [{"measurement": "IC50", "setting": "human LPAR3", "value": 398, "unit": "nM"}, {"measurement": "ATP content (cell viability)", "setting": "[1]", "value": "nor a decrease in ATP content"}, {"measurement": "lactate dehydrogenase leakage (cell death)", "setting": "[1]", "value": "neither an appreciable increase in lactate dehydrogenase"}, {"measurement": "IC50", "setting": "[2]", "value": 1.1, "unit": "nM"}, {"measurement": "secreted C3M", "setting": "[3]", "value": "reduction in C3M secretion with PIPE-791 at all concentrations tested, with significance observed at 0.03 and 3 µM"}, {"measurement": "secreted Pro-C3", "setting": "[3]", "value": "did not observe a significant decrease"}, {"measurement": "secreted Pro-C6", "setting": "[3]", "value": "significant reduction in secreted Pro-C6 at all concentrations"}, {"measurement": "reduction of IL-1β in BAL supernatant", "setting": "[4]", "value": 69.2, "unit": "%"}, {"measurement": "reduction of macrophage cell size (CD68 area)", "setting": "[4]; BAL cells", "value": 56, "unit": "%"}]}
